These results are taken from US20250263440A1, “CD38-BINDING AGENTS AND USES THEREOF” (PeptiDream Inc., priority 2019, published 2025).

This experiment has as its target His-tagged CD38 (Homo sapiens, UniProt P28907). The experiment in a line: SPR assay (Biacore S200, Sensor Chip NTA, single-cycle kinetics) of SEQ ID NO.1 variants against His-tagged CD38. To be noted: for Kd: SPR Biacore S200, His-tagged CD38, calculated from ka and kd; for kon / koff: SPR Biacore S200, NTA chip, His-tagged CD38; for kon: read-out: Ka (association rate constant); for koff: read-out: Kd (dissociation rate constant). The format is binding. The method, then: SPR assay was performed using Biacore S200 (Cytiva: Former GE Healthcare).
After the equilibration of Series S Sensor Chip NTA (produced by Cytiva: Former GE Healthcare) with Running Buffer (10 mM HEPES pH7.4, 150 mM NaCl, 0.05% Tween 20), followed by injection of 350 mM EDTA at a flow rate of 10 L/min for 60 seconds and […] NiCl2 at a flow rate of 10 L/min for 60 seconds, then 3 mM EDTA at a flow rate of 10 L/min for 120 seconds, sequently, to wash the sensor chip.
EDC/NHS mixture was injected at a flow rate of […] for 7 minutes to thereby activate the functional groups on sensor chip. His-tagged CD38 in Running Buffer (10 mM HEPES pH7.4, 150 mM NaCl, 0.05% Tween 20) was injected immobilized to at a flow rate of […]. For 7 minutes to immobilize the CD38 on the substrate surfaces of the sensor chip. Then Ethanolamine was injected at a flow rate of […] for 7 minutes.
1.0 M Ethanolamine(aq.) was injected at a flow rate of 10 L/min for 420 seconds for capping. 10 mM peptides (which were synthesised described above) in DMSO were diluted to obtain 10 uM with Running Buffer, and prepared 100 nM, 50 nM, 25 nM, 10 nM, 5 nM of each peptide's solutions (Peptide Samples).
Using these Peptide Samples, kinetics of peptides against His-tagged CD38 was measured. The method adopted for sample measurement was a single-cycle kinetics method. The analysis was conducted using the evaluation software 1.1 provided with Biacore S200. A DMSO correction curve obtained by solvent correction measurements was applied for the analysis. Kinetics fitting was done on the difference data obtained by subtracting the baseline data from sample measurement data.
KD values were calculated based on the association rate constant (ka) and dissociation rate constant (kd).

Starred links: 1 amine or outer side, 2 acyl side, 3 side chain; linkers in the order of their positions; H or OH if unused. Positions of bridges follow the written chain, without caps; N, C: chain ends. Non-standard residues stand in square brackets, D forms with d. Residues, ends and D or L forms follow the SMILES beside them. *: point of attachment. Ala(2-NH2-4-pyridyl) = Nc1cc(C[C@H](N)C(=O)O)ccn1; X2 = N=C(N)Nc1cccc(CC(N[*:1])C(=O)[*:2])c1; Bip = N[C@@H](Cc1ccc(-c2ccccc2)cc1)C(=O)O; Nle(6-Ph) = N[C@@H](CCCCc1ccccc1)C(=O)O; Arg(Me2s) = CN=C(NC)NCCC[C@H](N)C(=O)O; Met(O2) = CS(=O)(=O)CC[C@H](N)C(=O)O; Arg(Me) = CNC(=N)NCCC[C@H](N)C(=O)O; hArg = N=C(N)NCCCC[C@H](N)C(=O)O; Ahp(2) = CCCCC[C@H](N)C(=O)O; X1 = COCCOCCOCCOCCC(=O)*

With `CCCCC[C@@H]1NC(=O)[C@H](CCCNC(=NC)NC)NC(=O)[C@H](C)NC(=O)CSC[C@@H](C(N)=O)NC(=O)[C@H](CC(=O)O)NC(=O)[C@H](CCCCc2ccccc2)NC(=O)[C@H](Cc2ccc(-c3ccccc3)cc2)NC(=O)[C@H](CC(C)C)NC(=O)[C@H](C(C)C)NC(=O)[C@H](CCC(=O)O)NC(=O)[C@H](CC(=O)O)NC(=O)[C@H](Cc2c[nH]cn2)NC(=O)[C@H](Cc2ccc(O)cc2)NC1=O` [compound 31] ({CH2CO}-A[Arg(Me2s)][Ahp(2)]YHDEVL[Bip][Nle(6-Ph)]DC-NH2; thioether N-13), the Kd is 2.6 nM, the kon stood at 480000 M⁻¹ s⁻¹ and the koff is 0.0012 s⁻¹.
On the same counts, the results for `CCCCC[C@@H]1NC(=O)[C@H](CCCNC(=N)NC)NC(=O)[C@H](C)NC(=O)CSC[C@@H](C(N)=O)NC(=O)[C@H](CC(=O)O)NC(=O)[C@H](CCCCc2ccccc2)NC(=O)[C@H](Cc2ccc(-c3ccccc3)cc2)NC(=O)[C@H](CC(C)C)NC(=O)[C@H](C(C)C)NC(=O)[C@H](CCC(=O)O)NC(=O)[C@H](CC(=O)O)NC(=O)[C@H](Cc2c[nH]cn2)NC(=O)[C@H](Cc2ccc(O)cc2)NC1=O` [compound 30] ({CH2CO}-A[Arg(Me)][Ahp(2)]YHDEVL[Bip][Nle(6-Ph)]DC-NH2; thioether N-13) are 3.1 nM, 350000 M⁻¹ s⁻¹ and 0.0011 s⁻¹.
As to `CCCCC[C@@H]1NC(=O)C(Cc2cccc(NC(=N)N)c2)NC(=O)[C@H](C)NC(=O)CSC[C@@H](C(N)=O)NC(=O)[C@H](CC(=O)O)NC(=O)[C@H](CCCCC)NC(=O)[C@H](Cc2ccc(-c3ccccc3)cc2)NC(=O)[C@H](CC(C)C)NC(=O)[C@H](C(C)C)NC(=O)[C@H](CCC(=O)O)NC(=O)[C@H](CC(=O)O)NC(=O)[C@H](Cc2c[nH]cn2)NC(=O)[C@H](Cc2ccc(O)cc2)NC1=O` (some centres unmarked) [compound 29] ({CH2CO}-A[X2][Ahp(2)]YHDEVL[Bip][Ahp(2)]DC-NH2; thioether N-13; C-terminus assumed), the kon amounted to 380000 M⁻¹ s⁻¹ and the koff turned out to be 0.00078 s⁻¹.
Consider `CCCCC[C@@H]1NC(=O)[C@H](CCCNC(=N)N)NC(=O)[C@H](C)NC(=O)CSC[C@@H](C(N)=O)NC(=O)[C@H](CC(=O)O)NC(=O)[C@H](CCCCC)NC(=O)[C@H](Cc2ccc(-c3ccccc3)cc2)NC(=O)[C@H]([C@@H](C)O)NC(=O)[C@H](C(C)C)NC(=O)CNC(=O)[C@H](CC(=O)O)NC(=O)[C@H](Cc2c[nH]cn2)NC(=O)[C@H](Cc2ccc(O)cc2)NC1=O` [compound 7] ({CH2CO}-AR[Ahp(2)]YHDGVT[Bip][Ahp(2)]DC-NH2; thioether N-13), for which the kon was 819000 M⁻¹ s⁻¹ and the koff was 0.0535 s⁻¹.
As for `CCCCC[C@@H]1NC(=O)[C@H](CCCNC(=N)N)NC(=O)[C@H](C)NC(=O)CSC[C@@H](C(N)=O)NC(=O)[C@H](CC(=O)O)NC(=O)[C@H](CCCCC)NC(=O)[C@H](Cc2ccc(-c3ccccc3)cc2)NC(=O)[C@H](CCS(C)(=O)=O)NC(=O)[C@H](C(C)C)NC(=O)[C@H](CCCCNC(=N)N)NC(=O)[C@H](CC(=O)O)NC(=O)[C@H](Cc2c[nH]cn2)NC(=O)[C@H](Cc2ccc(O)cc2)NC1=O` [compound 16] ({CH2CO}-AR[Ahp(2)]YHD[hArg]V[Met(O2)][Bip][Ahp(2)]DC-NH2; thioether N-13), the dissociation constant (Kd) was 17.3 nM, the kon is 870000 M⁻¹ s⁻¹ and the koff is 0.015 s⁻¹.
As to `CCCCC[C@@H]1NC(=O)[C@H](CCCNC(=N)N)NC(=O)[C@H](C)NC(=O)CSC[C@@H](C(N)=O)NC(=O)[C@H](CC(=O)O)NC(=O)[C@H](CCCCC)NC(=O)[C@H](Cc2ccc(-c3ccccc3)cc2)NC(=O)[C@H](CC(C)C)NC(=O)[C@H](C(C)C)NC(=O)[C@H](CCC(=O)O)NC(=O)[C@H](CC(=O)O)NC(=O)[C@H](Cc2c[nH]cn2)NC(=O)[C@H](C)NC1=O` [compound 21] ({CH2CO}-AR[Ahp(2)]AHDEVL[Bip][Ahp(2)]DC-NH2; thioether N-13 (inferred); N-terminus and C-terminus assumed), the kon is 310000 M⁻¹ s⁻¹ and the koff was determined as 0.016 s⁻¹.
On the same counts, the results for `CCCCC[C@@H]1NC(=O)[C@H](CCCNC(=N)N)NC(=O)[C@H](C)NC(=O)CSC[C@@H](C(N)=O)NC(=O)[C@H](CC(=O)O)NC(=O)[C@H](CCCCC)NC(=O)[C@H](Cc2ccc(-c3ccccc3)cc2)NC(=O)[C@H](CC(C)C)NC(=O)[C@H](C(C)C)NC(=O)[C@H](CCCNC(=N)N)NC(=O)[C@H](CC(=O)O)NC(=O)[C@H](Cc2c[nH]cn2)NC(=O)[C@H](Cc2ccc(O)cc2)NC1=O` [compound 11] ({CH2CO}-AR[Ahp(2)]YHDRVL[Bip][Ahp(2)]DC-NH2; thioether N-13) are 1.6e+06 M⁻¹ s⁻¹ and 0.0019 s⁻¹.
For `CCCCC[C@@H]1NC(=O)[C@H](Cc2ccc(-c3ccccc3)cc2)NC(=O)[C@H](CC(C)C)NC(=O)[C@H](C(C)C)NC(=O)[C@H](CCC(=O)O)NC(=O)[C@H](CC(=O)O)NC(=O)[C@H](Cc2c[nH]cn2)NC(=O)[C@H](Cc2ccc(O)cc2)NC(=O)[C@H](CCCCC)NC(=O)[C@H](CCCNC(=N)N)NC(=O)[C@H](CCCCNC(=O)CCOCCOCCOCCOC)NC(=O)CSC[C@@H](C(N)=O)NC(=O)[C@H](CC(=O)O)NC1=O` [compound 17] ({CH2CO}-K(X1)R[Ahp(2)]YHDEVL[Bip][Ahp(2)]DC-NH2; thioether N-13), the Kd is 4.37 nM, the kon is 210000 M⁻¹ s⁻¹ and the koff was found to be 0.00091 s⁻¹.
Turning to `CCCCC[C@@H]1NC(=O)[C@H](CCCNC(=N)N)NC(=O)[C@H](C)NC(=O)CSC[C@@H](C(N)=O)NC(=O)[C@H](CC(=O)O)NC(=O)[C@H](CCCCC)NC(=O)[C@H](Cc2ccc(-c3ccccc3)cc2)NC(=O)[C@H](CCS(C)(=O)=O)NC(=O)[C@H](C(C)C)NC(=O)CNC(=O)[C@H](CC(=O)O)NC(=O)[C@H](Cc2c[nH]cn2)NC(=O)[C@H](Cc2ccc(O)cc2)NC1=O` [compound 9] ({CH2CO}-AR[Ahp(2)]YHDGV[Met(O2)][Bip][Ahp(2)]DC-NH2; thioether N-13 (inferred); N-terminus and C-terminus assumed), the kon came to 664000 M⁻¹ s⁻¹ and the koff amounted to 0.00627 s⁻¹.
On to `CCCCC[C@@H]1NC(=O)[C@H](CCCNC(=N)N)NC(=O)[C@H](C)NC(=O)CSC[C@@H](C(N)=O)NC(=O)[C@H](CC(=O)O)NC(=O)[C@H](CCCCC)NC(=O)[C@H](Cc2ccc(-c3ccccc3)cc2)NC(=O)[C@H](CC(C)C)NC(=O)[C@H](C(C)C)NC(=O)[C@H](CCC(N)=O)NC(=O)[C@H](CC(=O)O)NC(=O)[C@H](Cc2c[nH]cn2)NC(=O)[C@H](Cc2ccc(O)cc2)NC1=O` [compound 4] ({CH2CO}-AR[Ahp(2)]YHDQVL[Bip][Ahp(2)]DC-NH2; thioether N-13 (inferred); N-terminus and C-terminus assumed), for which the kon was found to be 533000 M⁻¹ s⁻¹ and the koff is 0.0023 s⁻¹.
Regarding `CCCCC[C@@H]1NC(=O)[C@H](Cc2ccnc(N)c2)NC(=O)[C@H](C)NC(=O)CSC[C@@H](C(N)=O)NC(=O)[C@H](CC(=O)O)NC(=O)[C@H](CCCCc2ccccc2)NC(=O)[C@H](Cc2ccc(-c3ccccc3)cc2)NC(=O)[C@H](CC(C)C)NC(=O)[C@H](C(C)C)NC(=O)[C@H](CCC(=O)O)NC(=O)[C@H](CC(=O)O)NC(=O)[C@H](Cc2c[nH]cn2)NC(=O)[C@H](Cc2ccc(O)cc2)NC1=O` [compound 34] ({CH2CO}-A[Ala(2-NH2-4-pyridyl)][Ahp(2)]YHDEVL[Bip][Nle(6-Ph)]DC-NH2; thioether N-13), the dissociation constant (Kd) was 10.4 nM, the kon amounted to 120000 M⁻¹ s⁻¹ and the koff amounted to 0.0012 s⁻¹.
The matching figures for `CCCCC[C@@H]1NC(=O)[C@H](Cc2ccc(-c3ccccc3)cc2)NC(=O)[C@H](CC(C)C)NC(=O)[C@H](C(C)C)NC(=O)[C@H](CCC(=O)O)NC(=O)[C@H](CC(=O)O)NC(=O)[C@H](Cc2c[nH]cn2)NC(=O)[C@H](Cc2ccc(O)cc2)NC(=O)[C@H](CCCCC)NC(=O)[C@H](CCCNC(=N)N)NC(=O)[C@@H](C)NC(=O)CSC[C@@H](C(N)=O)NC(=O)[C@H](CC(=O)O)NC1=O` [compound 20] ({CH2CO}-[dA]R[Ahp(2)]YHDEVL[Bip][Ahp(2)]DC-NH2; thioether N-13): 10.6 nM, 730000 M⁻¹ s⁻¹ and 0.0077 s⁻¹.
In the case of `CCCCC[C@@H]1NC(=O)[C@H](CCCNC(=N)N)NC(=O)[C@H](C)NC(=O)CSC[C@@H](C(N)=O)NC(=O)[C@H](CC(=O)O)NC(=O)[C@H](CCCCC)NC(=O)[C@H](Cc2ccc(-c3ccccc3)cc2)NC(=O)[C@H](CC(C)C)NC(=O)[C@H](C(C)C)NC(=O)[C@H](CC(N)=O)NC(=O)[C@H](CC(=O)O)NC(=O)[C@H](Cc2c[nH]cn2)NC(=O)[C@H](Cc2ccc(O)cc2)NC1=O` [compound 5] ({CH2CO}-AR[Ahp(2)]YHDNVL[Bip][Ahp(2)]DC-NH2; thioether N-13), the kon is 766000 M⁻¹ s⁻¹ and the koff is 0.00161 s⁻¹.
